Measured values published in paper PMC9131373 (Drug testing and analysis, 2021).
“And” between values parts separate entries of the source, which are not always exact repeats. Identical values can stand only once. Like-named read-outs stand apart in the source and are kept apart here.

Key:
[1] = Stability of TFV and FTC in stock solutions, processed samples and hair; assay type: physicochemical; settings: for Stability in processed samples: a week in a refrigerator at 4°C; for Time stable in hair samples: room temperature, deviation less than ±15%
[2] = cited from earlier work; for Intracellular TFV-DP levels, higher: than levels without boosting
[3] = cited from earlier work
[4] = Plasma pharmacokinetics of TFV after TDF or TAF; assay type: in vivo, human; settings: from ref 75 and ref 76
[5] = TDF/FTC to HIV-noninfected volunteers, directly-observed, 7 days a week; cited from earlier work
[6] = MSM on TAF/FTC/COBI/EVG versus TDF/FTC; cited from earlier work
[7] = cited from earlier work; remark: listed apart in the source
[8] = TFV and FTC concentrations in participant hair samples by LC/MS/MS; assay type: in vivo, human; settings: for Difference of average hair concentration, TAF versus TDF: those on TAF relative to those on TDF
[9] = 200 μg/ml in 50% MeOH, at least 6 h at room temperature
[10] = TAF-based versus TDF-based regimen with darunavir/COBI/FTC
[11] = plasma, TAF (8 mg) compared with TDF (300 mg)
[12] = plasma, TAF (25 mg) compared with TDF (300 mg)
[13] = plasma, from TAF with darunavir/COBI/FTC
[14] = plasma, from TDF with darunavir/COBI/FTC
[15] = 6 participants on TAF/FTC-based ART
[16] = 10 participants on TDF/FTC-based ART
[17] = TAF-based ART, with booster (COBI or RTV)
[18] = TDF-based ART, not receiving boosters
[19] = TDF-based ART, receiving boosters (COBI or RTV)
[20] = average of original and repeated, one line per patient
[21] = both TDF- and TAF-containing ART, not on booster drugs
[22] = both TDF- and TAF-containing ART, on concomitant boosters (COBI or RTV)

SMILES	Stock solution stability [1, 9] [%]	acidic pKa [3]	Stability in processed samples [1] [%]	Stock solution stability ([1]; at least 1 year at 4°C) [%]	Time stable in hair samples [1]	Average hair concentration [8, 15]	Average hair concentration [8, 16]	Hair concentration [8, 17] [ng/mg hair]	Hair concentration ([8]; TAF-based ART, without booster) [ng/mg hair]	Hair concentration [8, 18] [ng/mg hair]	Hair concentration ([8]; TDF-based ART, receiving COBI) [ng/mg hair]	Hair concentration ([8]; TDF-based ART, receiving RTV) [ng/mg hair]	Hair concentration [8, 19] [ng/mg hair]	Hair concentration [8, 21] [ng/mg hair]	Hair concentration [8, 22] [ng/mg hair]	Difference of average hair concentration, TAF versus TDF [8] [%]	other results
Nc1[15n][13c](=O)[15n]([C@@H]2CS[C@H](CO)O2)cc1F [FTC-^13C,^15N2, emtricitabine-^13C,^15N2]	> 95.0	–	–	–	–	–	–	–	–	–	–	–	–	–	–	–	–
CC(Cn1cnc2c(N)ncnc21)OCP(=O)(O)OP(=O)(O)OP(=O)(O)O (stereo in doubt) [TFV-DP, tenofovir diphosphate]	–	–	–	–	–	–	–	–	–	–	–	–	–	–	–	–	Intracellular TFV-DP levels, higher ([2]; EVG/COBI/TAF/FTC): 5.3 fold; AUC of TFV-DP in PBMCs, higher than on TDF ([2]; TAF 8 mg versus TDF): 16.7%; AUC of TFV-DP in PBMCs, higher than on TDF ([2]; TAF 25 mg versus TDF): 613%; Intracellular TFV-DP levels, higher ([2]; darunavir/COBI/TAF/FTC): 652%
C[C@H](Cn1cnc2c(N)ncnc21)OCP(=O)(O)O [TFV, Tenofovir]	> 95.0	1.61	> 95.0	> 95.0	at least 18 months	0.0379 ± 0.0139 ng/mg hair and 0.0379 ng/mg hair	0.0553 ± 0.0318 ng/mg hair and 0.0553 ng/mg hair	0.0389 ± 0.0117	0.0370 ± 0.0185	0.0483 ± 0.0327	0.0844 ± 0.0357	0.0388 ± 0.0146	0.0584 ± 0.0336	0.0426 ± 0.0246	0.0525 ± 0.0295	−31.5	plasma AUC of TFV, boosted versus non-boosted, higher ([4]; TAF co-administrated with darunavir/COBI): approximately 5 times; plasma AUC of TFV, boosted versus non-boosted, higher ([4]; TDF co-administrated with darunavir/COBI): 1.95 times; intracellular TFV concentration, increase ([2]; after switching from EVG/COBI/TDF/FTC to EVG/COBI/TAF/FTC): 141%; median TFV hair concentration [5]: 0.038 ng/mg hair; Median urine TFV concentrations, lower on TAF-based regimen than on TDF [6]: approximately 14 times; plasma Cmax, lower ([7]; 25 mg TAF compared with 300 mg TDF): 17 times; plasma exposure of TFV, lower ([7]; EVG/COBI/TAF/FTC compared to EVG/COBI/TDF/FTC): 91%; TFV concentrations in the plasma with TAF lower than with TDF ([7]; TAF versus TDF): 4 fold; TFV exposure in plasma, decrease ([7]; TAF-based compared with TDF-based treatment): approximately 90%; AUC of TFV, decrease [7, 10]: 90.9%; Cmax of TFV, decrease [7, 10]: 95.5%; AUC of TFV, decrease [7, 11]: 96.6%; Cmax of TFV, decrease [7, 11]: 98.3%; AUC of TFV, decrease [7, 12]: 86.0%; Cmax of TFV, decrease [7, 12]: 93.6%; AUC of TFV [7, 13]: 339 ng·h/mL; Cmax of TFV [7, 13]: 18.8 ng/mL; AUC of TFV [7, 14]: 3737 ng·h/mL; Cmax of TFV [7, 14]: 413 ng/mL; TFV normalized average concentration, Average concentration [8, 20]: 0.0500 ng/mg hair and 0.0698 ng/mg hair and 0.0375 ng/mg hair and 0.0186 ng/mg hair and 0.0973 ng/mg hair and 0.0289 ng/mg hair and 0.0850 ng/mg hair and 0.0304 ng/mg hair and 0.0274 ng/mg hair and 0.0468 ng/mg hair
CC(Cn1cnc2c(N)ncnc21)OCP(=O)(O)O (stereo not shown) [TFV-d6, Tenofovir-d6]	> 95.0	–	–	–	–	–	–	–	–	–	–	–	–	–	–	–	–
Nc1nc(=O)n([C@@H]2CS[C@H](CO)O2)cc1F [FTC, emtricitabine]	> 95.0	13.83	> 95.0	> 95.0	at least 18 months	1.04 ± 0.83 ng/mg hair and 1.04 ng/mg hair	0.846 ± 0.659 ng/mg hair and 0.846 ng/mg hair	0.705 ± 0.233	1.37 ± 1.16	0.428 ± 0.343	1.26 ± 0.59	0.851 ± 0.807	1.03 ± 0.70	0.898 ± 0.925	0.930 ± 0.601	22.9	basic pKa [3]: 2.4; Median urine FTC concentrations between regimens [6]: not different; FTC normalized average concentration, Average concentration [8, 20]: 0.988 ng/mg hair and 2.76 ng/mg hair and 1.05 ng/mg hair and 0.412 ng/mg hair and 1.86 ng/mg hair and 0.146 ng/mg hair and 0.840 ng/mg hair and 0.348 ng/mg hair and 0.694 ng/mg hair and 0.502 ng/mg hair
